Test results taken from patent publication US20110166206A1, “UBIQUILIN REGULATION OF PRESENILIN ENDOPROTEOLYSIS, AND SUPPRESSION OF POLYGLUTAMINE-INDUCED TOXICITY IN CELLS” (UNIVERSITY OF MARYLAND BIOTECHNOLOGY INSTITUTE, priority 2005, published 2011).
Square brackets hold non-standard residues; d marks the D form. Peptide text beside a SMILES is read from it. * marks the point of attachment. Nle = CCCC[C@H](N)C(=O)O; Cbz = O=C(OCc1ccccc1)*

Legend:
[1] = system: PS1 and PS2 NTF and CTF; assay: MG132 treatment of UBQLN-transfected PS1 and PS2 stable cell lines, fragment immunoblot; type: cell-based; conditions: proteasome inhibitor treatment
Experimental: FIG. 3. […] (A) PS1 cells lines that were either not induced (lanes 1 and 3) or induced with PonA (lanes 2 and 4) and either left untransfected (lanes 1 and 2) or transfected with UBQLN1 expression plasmids (lanes 3 and 4) were treated for 7 h with MG132 after which protein lysates were collected and analyzed by immunoblotting. […] For clarification, if UBQLN did increase the turnover rate then by blocking degradation, turnover would be stopped and PS fragment levels would be similar, or increase, relative to that of untransfected cells. […] Densitometric analysis was used to quantify the extent of reduction. Each experiment was repeated more than three times and similar trends were observed.
(B) Same experiment and results as described in (A) except that PS2 inducible cell lines were used to examine PS2 NTF and CTF levels. […] UBQLN exerts greater effects on PS2 probably because it interacts more strongly with PS2, see [43].
HeLa and HEK293 cells were grown in DMEM supplemented with 10% FBS. PS1 and S2 inducible cell lines were generated by transfection of the pERV-expressing HEK293 cell line (Stratgene, IaIolla, Calif.) with FL human PS2 cDNA under the control of ponasteroneA (PonA)-inducible cassette in plasmid pEGSH (Stratagene). Stable integration of the pEGSH plasmid was achieved by selection for hygromycin resistance. […]

[2] = system: PS2 NTF; assay: Proteasome inhibitor treatment of PS2 inducible cells, PS2 NTF immunoblot; type: cell-based, human; conditions: 16 h treatment
Experimental: (§1) (A) PS1 and PS2 inducible cells were treated with various classes of proteasome inhibitors for 16 hours. Afterwards, cell lysates were collected, separated by SDS-PAGE, and analyzed by immunoblotting. PS1 NTF levels and PS2 NTF levels were reduced by treatment with all of the different inhibitors albeit to varying extents.
(§2) PS2 inducible cells were treated for 16 h with 10 uM clasto-lactacystin β-lactone, N-Acetyl-Leu-Leu-Nle-CHO (ALLN), 50 uM epoxomicin, 40 uM MG132, and […]. Afterwards, lysates were collected and the fragment levels were analyzed by SDS-PAGE and immunoblotting.
(§3) First, to rule out that MG132 inhibits another factor involved in PS cleavage, PS1 and PS2 inducible cells were treated with a series of different known proteasome inhibitors including clasto-lactacystin p-lactone, ALLN, epoxomicin, MG132, and MG262. […] While each inhibitor had varying effects on the extent of reduction, PS1 NTF levels were reduced by an average of 1.3-fold and PS2 NTF levels were reduced by an average of 1.4-fold. At first glance the fold reduction appears modest; however, considering that degradation of the PS fragments by the proteasome has also been blocked and that fragment levels are tightly regulated, the reduction in PS fragment levels appears significant. Furthermore, it was considered unlikely that all […] proteasome inhibitors used here caused nonspecific inhibition of an unknown factor involved in PS endoproteolysis. Instead, it was considered that the most straightforward interpretation of the results is that, in accord with the mode of action the drugs, they all inhibit the proteasome, which is involved in PS endoproteolysis.

[3] = system: PS1 NTF; assay: Proteasome inhibitor treatment of PS1 inducible cells, PS1 NTF immunoblot; type: cell-based; conditions: 16 h treatment
Experimental: as §1, §2, §3

[4] = system: PS2 NTF; assay: Proteasome inhibitor wash-out time course with CHX in PS2 stable cells; type: cell-based, human
Experimental: (B) PS2 inducible cells were treated continuously with MG132 or MG262 or the drugs were washed from half the cultures after 7 hours of incubation with the drugs. Immediately after washing, CHX was added to all of the cultures to inhibit protein synthesis. Lysates were collected at two hour time points thereafter and the PS fragment levels were analyzed by SDS-PAGE and subsequent immunoblotting. […] Please note that because PS2 expression was not been induced with PonA, the FL protein is not detectable. The filter was reprobed with anti-p27 antibody to monitor recovery of proteasome activity. p27 has a half-life of two hours; therefore once proteasome inhibition is relieved the level of p27 begins to decline (third panel, right), whereas under constant proteasome inhibition its levels remain steady (third panel, left), serving as an important control.
(C) Densitometric analysis was used to quantify the extent of increase in PS2 NTF levels in conditions of constant proteasome inhibition and upon removal of proteasome inhibition. At time=0 the NTF levels in the washed sample is equal to that of MG132 treated sample; however, NTF levels quickly begin to […], whereas in the MG132 treated samples PS2 NTF levels stay steady.
PS2 inducible cells were grown in two sets on […]. Both sets were treated with MG132 or MG262 (also called Z-Leu-Leu-Leu-B(OH)2, Boston Biocem). 7 h later, the drugs were washed off one set by rinsing twice with warm 1×PBS and replacing with fresh DMEM supplemented with 10% FBS, allowing the proteasomes to recover. Also at that point, cyclohexamide (final cont. […]) was added to all dishes. Lysates were collected at two hour time points and the fragment levels were analyzed by SDS-PAGE and subsequent immunoblotting.
To directly address whether the proteasome is responsible for endoproteolysis of PS2, another time course experiment utilizing proteasome inhibitors was devised. […]

[5] = system: endogenous PS1 NTF; assay: UBQLN overexpression in wild-type HEK293 cells, endogenous PS1 NTF immunoblot; type: cell-based; conditions: normal HEK293 cells
Experimental: (C) Endogenous PS fragment levels were analyzed in HEK293 cells that were transfected with increasing amounts of UBQLN1 or UBQLN2 expression plasmids. Equivalent amounts of protein lysates were separated by 10% SDS-PAGE and immunoblotted with anti-PS1 NTF antibody. The filter was then reprobed with anti-ubiquilin antibody to ensure overexpression of UBQLN and with an anti-actin antibody to ensure equal protein loading. Overexpression of UBQLN decreases PS1 NTF levels and the extent of reduction was quantified again by densitometric analysis. Graph is quantification of untransfected and […] UBQLN cDNA plasmid transfected lanes.
Preparation of protein lysates, SDS-PAGE and immunoblotting of proteins were described previously. Primary antibodies used were rabbit anti-PS2 loop and rabbit anti-PS2 NH,-terminus, both raised to GST-PS2 fusion proteins; rabbit anti-ubiquilin [43] which reacts with UBQLN1 and UBQLN2 polypeptides; rat anti-PS1 NH2,-terminus (Chemicon International, Temecula, Calif.); rabbit anti-PS1 loop raised to GST-PS1 fusion proteins; goat anti-p27 and goat anti-actin (Santa Cruz Biotechnology, Santa Cruz, Calif.); mouse monoclonal anti-tubulin (Sigma-Aldrich, St. Louis, Mo.); rabbit anti-nicastrin (Abeam, Cambridge, Mass.), rabbit anti-Pen-2 (Zymed, San Francisco, Calif.); and rabbit anti-Aph-la (Covance, Berkeley, Calif.). […]

Molecule	PS fragment levels, MG132 treated vs MG132 untreated cells [1]	PS2 NTF levels [2]	PS1 NTF levels [3]	rise in PS2 NTF levels after inhibitor washed out ([4]; 12 hours after wash-out, CHX added) [fold]	PS2 NTF levels under continuous inhibitor ([4]; inhibitor present for the continuous duration)	reduction of endogenous PS1 NTF levels [5]	PS2 fragments after removal of inhibitor ([4]; proteasomes recover activity)
CC(C)C[C@@H](C=O)NC(=O)[C@H](CC(C)C)NC(=O)[C@H](CC(C)C)NC(=O)OCc1ccccc1 [MG132] (Cbz-Leu-Leu-Leu-aldehyde)	reduced PS fragment levels	reduced	reduced	1.8	remained relatively constant	–	–
CC[C@H](C)[C@H](NC(=O)[C@H]([C@@H](C)CC)N(C)C(C)=O)C(=O)N[C@H](C(=O)N[C@@H](CC(C)C)C(=O)[C@@]1(C)CO1)[C@@H](C)O [epoxomicin]	–	reduced	reduced	–	–	–	–
CCCC[C@@H](C=O)NC(=O)[C@H](CC(C)C)NC(=O)[C@H](CC(C)C)NC(C)=O [ALLN, N-Acetyl-Leu-Leu-Nle-CHO] (Ac-Leu-Leu-[Nle]-aldehyde)	–	reduced	reduced	–	–	–	–
CC(C)[C@H](O)[C@@]12NC(=O)[C@H](C)[C@@H]1OC2=O [clasto-lactacystin p-lactone, clasto-lactacystin β-lactone]	–	reduced	reduced	–	–	–	–
UBQLN2: ubiquilin-2, 72% identical to UBQLN1, overexpressed from an expression plasmid	–	–	–	–	–	approximately 1.7 fold	–
CC(C)C[C@H](NC(=O)[C@H](CC(C)C)NC(=O)[C@H](CC(C)C)NC(=O)OCc1ccccc1)B(O)O [MG262, Z-Leu-Leu-Leu-B(OH)2]	–	reduced	reduced	–	–	–	notable increase in PS2 fragments
